Publication PMC7076352 (Pharmaceutics, 2020)

How the values were obtained:
in vivo = assay: in vivo; design: species or system Sprague-Dawley (SD) rats; settings: Sprague-Dawley, plasma, rat
Method: At each time, 0.5 mL of blood was collected in the heparin sodium tubes. Plasma was separated by centrifugation at 4000 rpm for 10 min and stored below −80 °C until bioanalysis. Oasis PRiME HLB SPE cartridges (1 cc/30 mg, Waters, Milford, MA, USA) were used to process the plasma samples (Supplementary Materials).
The generic layout of instrumentation setup of the LVDI-UHPLC-MS/MS was conducted on a Shimadzu UHPLC system consisting of two LC-20ADXR pumps, a DGU-20A3R degasser, and a CBM-20A controller (Kyoto, Japan) with a SCIEX 4500 QTRAP mass spectrometer mounted with an electron spray ionization (ESI) interface as well as an electronic 6-port/2-channel valve (Foster City, CA, USA). Analyst software package (version 1.6.2, SCIEX) was implemented to control and synchronize the entire system, and also for data acquisition and processing. A single analytical run was fragmented into two phases, namely, loading and elution phases, by switching the electronic valve (Figure 2). At the loading phase, the valve was maintained at A-channel. The specimen aliquot of large volume delivered from the auto-sampler was captured onto a guard column. Meanwhile, the pumps were responsible for delivering the mobile phase at a high flow rate, aiming to dilute the sample solvent, thus facilitating the candidate constituents to concentrate on the pre-guard column. Then, the valve was automatically switched to the B-channel to trigger the elution phase. The trapped components were flushed from the pre-guard column into an analytical column, and underwent multiple reaction monitoring (MRM) analysis on the optimized LC gradients. The detailed information of LVDI-UHPLC-MS/MS analysis for pharmacokinetic and cocktail studies is shown in the Supplementary Materials section.

CYP2D6 = assay: in vitro; settings: Sprague-Dawley, rat
Method: (§1) (OHBUP-[D6]) and 5 nM 4′-hydroxydiclofenac-[^13C6] (OHDIC-[^13C6]) as internal standards (ISs). […]
(§2) standard addition experiments. Each group included four concentration levels. For the PK […]
(§3) The probe compounds, viz. […]
(§4) chosen after incubating all the recruited substrates. In order to assure the linear relationship […]
(§5) The incubation system was also optimized in terms of substrate concentrations. The substrates concentrations of […]

CYP3A4 = assay: in vitro; settings: Sprague-Dawley, rat, pH 7.4
Method: as §1, §2, §3, §4, §5

CYP2C9 = assay: In vitro cocktail CYP450 activity assay in rat liver microsomes, CYP2C9 (tolbutamide probe)
Method: as §1, §2, §3, §4, §5

CYP2B6 = assay: In vitro cocktail CYP450 activity assay in rat liver microsomes, CYP2B6 (bupropion probe)
Method: as §1, §2, §3, §4, §5

CYP2E1 [1] = target: T1, CYP2E1 (Rattus norvegicus, UniProt P05182); settings: at the Cmax level in rat plasma, calculated from the dose–response curve
CYP2C19 = assay: In vitro cocktail CYP450 activity assay in rat liver microsomes, CYP2C19 (omeprazole probe)
Method: as §1, §2, §3, §4, §5

CYP2E1 [2] = target: T1, CYP2E1; settings: IC50 CYP2E1, single components; RLM 0.2 mg/mL, 15 min, triplicate, mean ± SD
CYP1A2 = target: T2, CYP1A2 (Rattus norvegicus, UniProt P04799); assay: In vitro cocktail CYP450 activity assay in rat liver microsomes, CYP1A2 (phenacetin probe)
T2 sequence (P04799 1-513): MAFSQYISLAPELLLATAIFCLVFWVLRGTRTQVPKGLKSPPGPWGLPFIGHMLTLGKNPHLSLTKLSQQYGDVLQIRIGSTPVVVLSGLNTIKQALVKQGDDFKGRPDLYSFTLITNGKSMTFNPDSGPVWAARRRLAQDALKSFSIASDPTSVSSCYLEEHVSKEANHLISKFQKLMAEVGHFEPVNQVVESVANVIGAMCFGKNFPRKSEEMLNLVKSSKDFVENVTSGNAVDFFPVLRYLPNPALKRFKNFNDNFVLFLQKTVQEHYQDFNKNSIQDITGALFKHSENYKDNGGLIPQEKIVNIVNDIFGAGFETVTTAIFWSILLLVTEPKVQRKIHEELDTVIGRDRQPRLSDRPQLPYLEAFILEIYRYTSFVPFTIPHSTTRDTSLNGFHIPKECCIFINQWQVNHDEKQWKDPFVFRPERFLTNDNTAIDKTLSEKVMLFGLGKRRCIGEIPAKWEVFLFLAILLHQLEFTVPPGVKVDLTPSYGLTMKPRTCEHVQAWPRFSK
Method: as §1, §2, §3, §4, §5

[3] = at the Cmax level in rat plasma, calculated from the dose–response curve

T1 sequence (P05182 whole entry): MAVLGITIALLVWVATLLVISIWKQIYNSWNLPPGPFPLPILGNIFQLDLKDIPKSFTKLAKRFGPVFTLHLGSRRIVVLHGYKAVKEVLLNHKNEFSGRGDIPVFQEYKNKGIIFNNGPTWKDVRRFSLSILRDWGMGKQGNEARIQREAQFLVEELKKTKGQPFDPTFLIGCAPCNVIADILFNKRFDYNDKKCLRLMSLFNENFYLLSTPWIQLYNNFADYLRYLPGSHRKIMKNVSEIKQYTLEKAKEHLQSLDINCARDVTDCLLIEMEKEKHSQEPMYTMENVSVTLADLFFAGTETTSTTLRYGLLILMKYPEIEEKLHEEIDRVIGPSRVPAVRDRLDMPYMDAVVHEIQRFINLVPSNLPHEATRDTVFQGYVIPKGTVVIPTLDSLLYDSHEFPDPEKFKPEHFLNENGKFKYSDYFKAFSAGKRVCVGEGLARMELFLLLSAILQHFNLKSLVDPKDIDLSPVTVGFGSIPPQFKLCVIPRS

In the case of `CC(C)=CCC[C@](C)(O[C@@H]1O[C@H](CO[C@@H]2O[C@H](CO)[C@@H](O)[C@H](O)[C@H]2O)[C@@H](O)[C@H](O)[C@H]1O)[C@H]1CC[C@]2(C)[C@@H]1[C@H](O)C[C@@H]1[C@@]3(C)CC[C@H](O[C@@H]4O[C@H](CO)[C@@H](O)[C@H](O)[C@H]4O[C@@H]4O[C@H](CO)[C@@H](O)[C@H](O)[C@H]4O)C(C)(C)[C@@H]3CC[C@]12C` [GRb1, ginsenoside Rb1], the concentration at […] (in vivo; 0.083 h after oral CNP) is reported as 18.7 ± 4.36 ng/mL, the concentration at 0.25 h (in vivo; 0.25 h after oral CNP) is reported as 22.5 ± 4.27 ng/mL and the concentration at 0.5 h (in vivo; 0.5 h after oral CNP) is reported as 36.1 ± 7.79 ng/mL. It also gave a concentration at 1 h (in vivo; 1 h after oral CNP) of 45.5 ± 3.29 ng/mL, a concentration at 1.5 h (in vivo; 1.5 h after oral CNP) of 54.6 ± 10.9 ng/mL and a concentration at 2 h (in vivo; 2 h after oral CNP) of 60.5 ± 12 ng/mL. For the same compound, the concentration at 3 h (in vivo; 3 h after oral CNP) was 69.5 ± 9.4 ng/mL, the concentration at 4 h (in vivo; 4 h after oral CNP) was 83.9 ± 31.8 ng/mL and the concentration at 6 h (in vivo; 6 h after oral CNP) was 113 ± 74.6 ng/mL. The concentration at 8 h (in vivo; 8 h after oral CNP) was 80 ± 20.6 ng/mL, the concentration at 12 h (in vivo; 12 h after oral CNP) was 63.9 ± 28.4 ng/mL and the concentration at 24 h (in vivo; 24 h after oral CNP) was 22.4 ± 4.86 ng/mL. For the same compound, the concentration at 48 h (in vivo; 48 h after oral CNP) was 19.4 ± 3.81 ng/mL, the concentration at 72 h (in vivo; 72 h after oral CNP) was 9.62 ± 1.02 ng/mL and the concentration at 96 h (in vivo; 96 h after oral CNP) was 6.43 ± 2.45 ng/mL. It also gave an AUC(0-inf) (in vivo; po, 60 mg/kg) of 2810 ± 618 ng·h/mL, an AUC(0-t) (in vivo; po, 60 mg/kg) of 2320 ± 683 ng·h/mL and a Cmax (in vivo; po, 60 mg/kg) of 113 ± 41.8 ng/mL. It also gave a Tmax (in vivo; po, 60 mg/kg) of 5.5 ± 1.8 h, a half-life (in vivo; po, 60 mg/kg) of 36.9 ± 9.65 h and a concentration at 0.25 h (in vivo; po, 60 mg·kg^−1) of 27.9 ± 4.54 ng/mL. It also gave a concentration at 0.5 h (in vivo; po, 60 mg·kg^−1) of 38.1 ± 3.67 ng/mL, a concentration at 1 h (in vivo; po, 60 mg·kg^−1) of 53.5 ± 12 ng/mL and a concentration at 1.5 h (in vivo; po, 60 mg·kg^−1) of 58.4 ± 12.4 ng/mL. The concentration at 2 h (in vivo; po, 60 mg·kg^−1) was 61.9 ± 19.5 ng/mL, the concentration at 3 h (in vivo; po, 60 mg·kg^−1) was 78.1 ± 12.8 ng/mL and the concentration at 4 h (in vivo; po, 60 mg·kg^−1) was 86.9 ± 41 ng/mL. For the same compound, the concentration at 6 h (in vivo; po, 60 mg·kg^−1) was 107 ± 42.1 ng/mL, the concentration at 8 h (in vivo; po, 60 mg·kg^−1) was 75.7 ± 26.3 ng/mL and the concentration at 12 h (in vivo; po, 60 mg·kg^−1) was 53.9 ± 19.1 ng/mL. It also gave a concentration at 24 h (in vivo; po, 60 mg·kg^−1) of 19.2 ± 5.86 ng/mL, a concentration at 48 h (in vivo; po, 60 mg·kg^−1) of 18.9 ± 8.97 ng/mL and a concentration at 72 h (in vivo; po, 60 mg·kg^−1) of 9.45 ± 3.37 ng/mL. The concentration at 96 h (in vivo; po, 60 mg·kg^−1) was 6.79 ± 1.89 ng/mL, the “Response (% control) CYP2D6” value (CYP2D6; 15 min, pH 7.4) was 98.58 % control and the IC50 at 15 min (CYP2D6; microsomes, pH 7.4, IC50 CYP2D6) was 17.1 ± 1.29 µM. The “Response (% control) CYP3A4” value (CYP3A4; 15 min) was 99.99 % control, the IC50 at 15 min (CYP3A4; microsomes) was 30 ± 2.47 µM and the IC50 at 15 min (CYP2C9; Sprague-Dawley, rat, pooled rat liver microsomes, pH 7.4, probe tolbutamide (18 µM, in seven-probe cocktail), IC50 CYP2C9, single components, RLM 0.2 mg/mL, 15 min, triplicate, mean ± SD) was 17.6 ± 2.03 µM. For the same compound, the “Response (% control) CYP2C9” value (CYP2C9; [3]) was 99.70 % control, the IC50 at 15 min (CYP2B6; Sprague-Dawley, rat, pooled rat liver microsomes, pH 7.4, probe bupropion (90 µM, in seven-probe cocktail), IC50 CYP2B6, single components, RLM 0.2 mg/mL, 15 min, triplicate, mean ± SD) was 121 ± 10.9 µM and the “Response (% control) CYP2B6” value (CYP2B6; [3]) was 96.46 % control. The “Response (% control) CYP2E1” value (CYP2E1 [1]) was 99.99 % control, the IC50 at 15 min (CYP2C19; Sprague-Dawley, rat, pooled rat liver microsomes, pH 7.4, probe omeprazole (1.07 µM, in seven-probe cocktail), IC50 CYP2C19, single components, RLM 0.2 mg/mL, 15 min, triplicate, mean ± SD) was 16.8 ± 2.52 µM and the “Response (% control) CYP2C19” value (CYP2C19; [3]) was 98.58 % control. For the same compound, the IC50 (CYP2E1 [2]) was 28 ± 2.39 µM, the IC50 (CYP1A2; IC50 CYP1A2, single components, RLM 0.2 mg/mL, 15 min, triplicate, mean ± SD) was 5.84 ± 0.14 µM and the “Response (% control) CYP1A2” value (CYP1A2; [3]) was 79.30 % control.
